Calls of active or inactive are those of the source. No cut-off for these calls is given here.
Columns and labels:
MDA-MB-468 [1] = assay: Cell cycle arrest in human MDA-MB-468 cells assessed as accumulation at S phase at 20 uM incubated for 72 hrs by propidium iodide staining-based flow cytometry analysis (reference value: 21.1%); type: functional
MDA-MB-468 [2] = assay: Downregulation of BRD4 expression level in human MDA-MB-468 cells by Western blot analysis; type: functional, cell-based; details: dose 5-20 µM, DDE = dose-dependent effect
MDA-MB-231 [3] = assay: Inhibition of homologous recombinant repair in human MDA-MB-231 cells assessed as down-regulation of Mre11 expression at 5 to 20 uM in by Western blot analysis; type: functional, cell-based; details: dose 5-20 µM
[4] = biological target: T1, Bromodomain-containing protein 4 (Homo sapiens, UniProt O60885); assay: Inhibition of BRD4 BD1 (unknown origin)
MDA-MB-468 [5] = assay: Induction of DNA damage in human MDA-MB-468 cells assessed as up-regulation of gammaH2AX expression level at 5 to 20 uMby DAPI staining based immunofluorescence assay; type: functional, cell-based; details: dose 5-20 µM
MDA-MB-468 [6] = assay: Downregulation of c-Myc expression level in human MDA-MB-468 cells by Western blot analysis; type: functional, cell-based; details: dose 5-20 µM, DDE = dose-dependent effect
MDA-MB-468 [7] = assay: Cell cycle arrest in human MDA-MB-468 cells assessed as accumulation at G0/G1 phase at 10 uM incubated for 72 hrs by propidium iodide staining-based flow cytometry analysis (reference value: 61.4%); type: functional
MDA-MB-468 [8] = assay: Antiproliferative activity against human MDA-MB-468 cells assessed as reduction in cell viability incubated for 72 hrs by MTT assay; type: functional, cell-based; details: MDA-MB-468, 72 h
[9] = Toxicity in BALB/c nude mouse xenografted with human MDA-MB-468 cells assessed as morphological changes in kidney at 40 to 80 mg/kg, ig administered daily for 16 days measured every 3 days by hematoxyin-eosin staining based analysis; type: organism-based; details: in vivo, po, 384 h, dose 40-80 mg/kg, time 16 day
MDA-MB-468 [10] = assay: Induction of apoptosis in human MDA-MB-468 cells assessed as early apoptotic cells at 20 uM incubated for 72 hrs by annexin V/propidium iodide staining-based flow cytometry analysis (reference value: 4.07%); type: functional
MDA-MB-468 [11] = assay: Cell cycle arrest in human MDA-MB-468 cells assessed as accumulation at S phase at 5 uM incubated for 72 hrs by propidium iodide staining-based flow cytometry analysis (reference value: 21.1%); type: functional
MDA-MB-468 [12] = assay: Antitumor activity against human MDA-MB-468 cells xenografted in BALB/c nude mouse model assessed as tumor growth inhibition at 40 to 80 mg/kg, ig administered daily for 16 days measured every 3 days relative to control; type: functional; details: dose 40-80 mg/kg, time 16 day
MDA-MB-468 [13] = assay: Induction of apoptosis in human MDA-MB-468 cells assessed as late apoptotic cells at 20 uM incubated for 72 hrs by annexin V/propidium iodide staining-based flow cytometry analysis (reference value: 1.34%); type: functional
MDA-MB-468 [14] = assay: Induction of apoptosis in human MDA-MB-468 cells assessed as early apoptotic cells at 10 uM incubated for 72 hrs by annexin V/propidium iodide staining-based flow cytometry analysis (reference value: 4.07%); type: functional
MDA-MB-231 [15] = assay: Antitumor activity against human MDA-MB-231 cells xenografted in BALB/c nude mouse assessed as reduction in CtIp expression at 40 to 80 mg/kg incubated for 30 to 40 mins by immunohistochemical analysis; type: functional, organism-based; details: dose 40-80 mg/kg, time 30-40 min
[16] = Toxicity in BALB/c nude mouse xenografted with human MDA-MB-468 cells assessed as death at 80 mg/kg, ig administered daily for 16 days measured every 3 days; type: organism-based; details: in vivo, po, 384 h, time 16 day
[17] = AUC (0 to t) in Sprague-Dawley rat at 10 mg/kg, po; type: ADME, organism-based; parameters: dose 10 mg/kg, route po; details: in vivo
MDA-MB-231 [18] = assay: Antitumor activity against human MDA-MB-231 cells xenografted in BALB/c nude mouse assessed as downregulation of CtIP at 80 mg/kg by Western blot analysis; type: functional, organism-based
MDA-MB-231 [19] = assay: Antitumor activity against human MDA-MB-231 cells xenografted in BALB/c nude mouse assessed as reduction in c-Myc expression at 40 to 80 mg/kg incubated for 30 to 40 mins by immunohistochemical analysis; type: functional, organism-based; details: dose 40-80 mg/kg, time 30-40 min
MDA-MB-231 [20] = assay: Antitumor activity against human MDA-MB-231 cells xenografted in BALB/c nude mouse assessed as reduction in PAR expression at 40 to 80 mg/kg incubated for 30 to 40 mins by immunohistochemical analysis; type: functional, organism-based; details: dose 40-80 mg/kg, time 30-40 min
[21] = Toxicity in BALB/c nude mouse xenografted with human MDA-MB-468 cells assessed as morphological changes in heart at 40 to 80 mg/kg, ig administered daily for 16 days measured every 3 days by hematoxyin-eosin staining based analysis; type: organism-based; details: in vivo, po, 384 h, dose 40-80 mg/kg, time 16 day
[22] = AUC (0 to infinity) in Sprague-Dawley rat at 10 mg/kg, po; type: ADME, organism-based; parameters: time infinity, dose 10 mg/kg, route po; details: in vivo
MDA-MB-231 [23] = assay: Antitumor activity against human MDA-MB-231 cells xenografted in BALB/c nude mouse assessed as downregulation of PAR at 80 mg/kg by Western blot analysis; type: functional, organism-based
[24] = Toxicity in BALB/c nude mouse xenografted with human MDA-MB-468 cells assessed as morphological changes in heart at 80 mg/kg, ig administered daily for 16 days measured every 3 days by hematoxyin-eosin staining based analysis; type: organism-based; details: in vivo, po, 384 h, time 16 day
MDA-MB-468 [25] = assay: Induction of apoptosis in human MDA-MB-468 cells assessed as downregulation of Bcl-2 protein level at 20 uM incubated for 72 hrs by Western blot analysis; type: functional, cell-based
MDA-MB-468 [26] = assay: Induction of apoptosis in human MDA-MB-468 cells assessed as up-regulation of Bax protein level at 20 uM incubated for 72 hrs by Western blot analysis; type: functional, cell-based
[27] = biological target: T1, Bromodomain-containing protein 4; assay: Inhibition of BRD4 BD2 (unknown origin)
[28] = biological target: T1, Bromodomain-containing protein 4; assay: Inhibition of BRD4 (unknown origin)
MDA-MB-468 [29] = assay: Inhibition of homologous recombinant repair in human MDA-MB-468 cells assessed as down-regulation of p-RPA32 expression at 5 to 20 uM in by Western blot analysis; type: functional, cell-based; details: dose 5-20 µM
[30] = Toxicity in BALB/c nude mouse xenografted with human MDA-MB-468 cells assessed as morphological changes in lung at 40 to 80 mg/kg, ig administered daily for 16 days measured every 3 days by hematoxyin-eosin staining based analysis; type: organism-based; details: in vivo, po, 384 h, dose 40-80 mg/kg, time 16 day
MDA-MB-468 [31] = assay: Cell cycle arrest in human MDA-MB-468 cells assessed as accumulation at G0/G1 phase at 20 uM incubated for 72 hrs by propidium iodide staining-based flow cytometry analysis (reference value: 61.4%); type: functional
[32] = Cmax in Sprague-Dawley rat at 1 mg/kg, iv; type: ADME, organism-based; parameters: dose 1 mg/kg, route iv; details: in vivo
[33] = Half life in Sprague-Dawley rat at 1 mg/kg, iv; type: ADME, organism-based; details: in vivo
[34] = biological target: T1, Bromodomain-containing protein 4; assay: Inhibition of BRD4 (unknown origin) at 1 uM relative to control
MDA-MB-468 [35] = assay: Induction of apoptosis in human MDA-MB-468 cells assessed as up-regulation of cleaved caspase 3 protein level at 20 uM incubated for 72 hrs by Western blot analysis; type: functional, cell-based
[36] = AUC (0 to infinity) in Sprague-Dawley rat at 1 mg/kg, iv; type: ADME, organism-based; parameters: time infinity, dose 1 mg/kg, route iv; details: in vivo
MDA-MB-468 [37] = assay: Cell cycle arrest in human MDA-MB-468 cells assessed as accumulation at G0/G1 phase at 5 uM incubated for 72 hrs by propidium iodide staining-based flow cytometry analysis (reference value: 61.4%); type: functional

With `COc1cc(OC)c2c(=O)[nH]c(-c3cccc(Cc4n[nH]c(=O)c5ccccc45)c3)nc2c1` the Activity (MDA-MB-468 [1]) was 12.4%, the Activity (MDA-MB-468 [2]) was “Dde” and the Activity (MDA-MB-231 [3]) was “Active”. For the same compound, the IC50 [4] was 251 nM, the Activity (MDA-MB-468 [5]) was “Active” and the Activity (MDA-MB-468 [6]) was “Dde”. The Activity (MDA-MB-468 [7]) was 63.2%, the IC50 (MDA-MB-468 [8]) was 3010 nM and the Activity [9] was “Non-Toxic”. The Activity (MDA-MB-468 [10]) was 28.26%, the Activity (MDA-MB-468 [11]) was 22.2% and the TGI (MDA-MB-468 [12]) was 68.7%. The Activity (MDA-MB-468 [13]) was 6.18%, the Activity (MDA-MB-468 [14]) was 25.61% and the Activity (MDA-MB-231 [15]) was “Active”. For the same compound, the Activity [16] was “Non-Toxic”, the AUC(0-t) [17] was 1490 ng·h/mL and the Activity (MDA-MB-231 [18]) was “Active”. The Activity (MDA-MB-231 [19]) was “Active”, the Activity (MDA-MB-231 [20]) was “Active” and the Activity [21] was “Non-Toxic”. The AUC(0-inf) [22] was 1530 ng·h/mL, the Activity (MDA-MB-231 [23]) was “Active” and the Activity [24] was “Non-Toxic”. The Activity (MDA-MB-468 [25]) was “Active”, the Activity (MDA-MB-468 [26]) was “Active” and the IC50 [27] was 175 nM. For the same compound, the IC50 [28] was 238 nM, the inhibition (MDA-MB-468 [29]) was “Active” and the Activity [30] was “Non-Toxic”. For the same compound, the Activity (MDA-MB-468 [31]) was 74.3%, the Cmax [32] was 258 ng/mL and the t1/2 [33] was 3.02 h. The inhibition [34] was 76.2%, the Activity (MDA-MB-468 [35]) was “Active” and the AUC(0-inf) [36] was 642 ng·h/mL. It also gave an Activity (MDA-MB-468 [37]) of 62.3%.
